According to US11427595B2, “Compositions and methods for inhibiting viral infection” (Trustees of Boston University, priority 2018, dated 2022):

What was measured:
[1] = tested on: Huh7.5.1 cells; assay: MTS cell viability assay; format: cell-based, human; conditions: 3 h treatment, 72 h incubation
Excerpt: In this comparison, niclosamide was used as a positive control, which is known as HCV inhibitor (unclear mechanisms). Data from CellTiter-Glo assay was obtained from separate experiments conducted on a different date.
MTS (3-(4,5-dimethylthiazol-2-yl)-5-(3-carboxymethoxyphenyl)-2-(4-sulfophenyl)-2H-tetrazolium)) assay is a colorimetric assay used to determine the mitochondrial metabolic rate by quantifying the reduced formazan product of MTS in cells to reflect viable cells. To determine the CC50 of each compound, Huh7.5.1 cells were treated with compounds or DMSO at indicated doses for 3 h in 96-well plates. After removal of compounds, cells were further incubated for 72 h prior to conducting the viability assay. The MTS assay in this study is accordance with a protocol provided by manufacturer (Promega, Madison, Wis. USA). One-fifth volume of MTS reagent was added into the culture supernatant at indicated time points. Plates were incubated at 37° C. for 3 hours with 5% CO2 followed by measuring the absorbance at 490 nanometers (nm) with an ELISA reader (SpectraMax Plus 385, Molecular Devices, USA). Percentages of toxicity were calculated using the formulas: 100-percentage of vial cells relative to that from the dimethyl sulfoxide (DMSO) treated group (100%) (n=3) (FIG. 68-FIG. 71).

[2] = tested on: JFH-1 HCVcc-Luc; assay: microbe, parasite or virus in culture; format: cell-based, Hepatitis C virus; conditions: for EC50: Hepatitis C virus, Huh-7.5.1, read-out: EC50, inhibition of HCV infection; for inhibition of HCV infection (in words): Huh7.5.1 cells, comparisons are to aglaroxin C (6)
[3] = Cytotoxicity, CellTiter-Glo Cell Viability Luminescent Assay; format: cell-based, human; conditions: human; Huh7.5.1 cells, 3 h treatment, viability after 72 h; concentration giving 50% cell death
Protocol: (§1) To determine the […] of each compound, Huh7.5.1 cells were treated with compounds or DMSO at indicated doses for 3 h in 96-well plates. After removal of compounds, cells were further incubated for 72 h prior to the viability assay. The numbers of viable cells in culture were determined using the CellTiter-Glo Cell Viability Luminescent Assay kit according to the manufacturer's instruction (Promega). Percentages of toxicity were calculated using the formulas: 100-percentage of vial cells relative to that from the dimethyl sulfoxide (DMSO) treated group (100%) (n=3) (FIG. 20-FIG. 57).

[4] = tested on: Huh7.5.1 cells; assay: as above; format: cell-based, human; conditions: Huh7.5.1 cells; for cytotoxicity (in words): comparisons are to aglaroxin C (6)
Protocol: as §1

[5] = tested on: cap-dependent Firefly luciferase (FLuc) translation; assay: In vitro translation of bicistronic FF/HCV/Ren mRNA in Krebs-2 extracts, cap-dependent; format: biochemical; conditions: 1 μM, relative to DMSO
Excerpt: In this system, Firefly luciferase (FLuc) translation is cap-dependent whereas Renilla luciferase (RLuc) expression HCV-IRES dependent. […] Results are presented relative to values obtained in the presence of DMSO ad expressed as mean±error of two biological replicates.
In this system, translation of the Firefly luciferase (FLuc) translation is cap-dependent whereas Renilla luciferase (RLuc) translation is dependent upon the HCV internal ribosome entry site (IRES) FIG. 11A.
In vitro transcriptions and translations were performed as described previously. Plasmid encoding the bicistronic FF/HCV/Ren open reading frame was linearized with BamHI and m^7Gppp-capped mRNA was produced by in vitro transcription reactions using SP6 RNA polymerase. In vitro translation reactions were performed with S10 extracts prepared from Kreb-2 cells and programmed with 4 ng/uL of in vitro transcribed mRNA. Firefly (FF) and Renilla (Ren) luciferase activities were measured on a Berthold Lumat LB9507 Luminometer and values normalized against vehicle control, which was set at 1.

[6] = tested on: translation; conditions: previous studies; cited from earlier work

| SMILES | inhibition of HCV infection (in words) [2] | cytotoxicity (in words) [4] | also measured |
| --- | --- | --- | --- |
| COc1ccc(-c2nc3c(c(=O)[nH]2)[C@@H](c2ccccc2)[C@]2(c4ccc(OC)cc4)Oc4cc(OC)cc(OC)c4[C@]32O)cc1 (racemic) [12k, (5R,5aR,10bS)-10b-Hydroxy-8,10-dimethoxy-2,5a-bis(4-methoxyphenyl)-5-phenyl-3,5,5a,10b-tetrahydro-4H-benzofuro[2′,3′:4,5]cyclopenta[1,2-d]pyrimidin-4-one] | – | – | toxicity curve in MTS assay compared with CellTiter-Glo assay [1]: nearly identical toxicity curves |
| COc1ccc([C@@]23Oc4cc(OC)cc(OC)c4[C@]2(O)c2nc(-c4ccc(C(F)(F)F)cc4)[nH]c(=O)c2[C@H]3c2ccccc2)cc1 (racemic) [12o, (5R,5aR,10bS)-10b-Hydroxy-8,10-dimethoxy-5a-(4-methoxyphenyl)-5-phenyl-2-(4-(trifluoromethyl)phenyl)-3,5,5a,10b-tetrahydro-4H-benzofuro[2′,3′:4,5]cyclopenta[1,2-d]pyrimidin-4-one] | – | – | EC50 [2]: 0.24 µM; CC50 [3]: 10 µM; maximum cytotoxicity plateau, cell death ([4]; dose-response up to 200 μM): ~100%; toxicity curve in MTS assay compared with CellTiter-Glo assay [1]: nearly identical toxicity curves |
| COc1ccc([C@@]23Oc4cc(OC)cc(OC)c4[C@]2(O)c2nc(-c4ccccc4)[nH]c(=O)c2[C@H]3c2ccccc2)cc1 [12a, (5R,5aR,10bS)-10b-Hydroxy-8,10-dimethoxy-5a-(4-methoxyphenyl)-2,5-diphenyl-3,5,5a,10b-tetrahydro-4H-benzofuro[2′,3′:4,5]cyclopenta[1,2-d]pyrimidin-4-one] | promising increase of inhibition | plateauing of cytotoxicity | EC50 [2]: 0.42 µM; CC50 [3]: 8.1 µM |
| COc1ccc([C@@]23Oc4cc(OC)cc(OC)c4[C@]2(O)c2nc(-c4ccccn4)[nH]c(=O)c2[C@H]3c2ccccc2)cc1 [12ab, (5R,5aR,10bS)-10b-Hydroxy-8,10-dimethoxy-5a-(4-methoxyphenyl)-5-phenyl-2-(pyridin-2-yl)-3,5,5a,10b-tetrahydro-4H-benzofuro[2′,3′:4,5]cyclopenta[1,2-d]pyrimidin-4-one] | slightly increased inhibition | – | – |
| COc1ccc([C@@]23Oc4cc(OC)cc(OC)c4[C@]2(O)c2nc4n(c(=O)c2[C@H]3c2ccccc2)CCCC4)cc1 [12ad, (5aR,6R,13bS)-13b-Hydroxy-1,3-dimethoxy-5a-(4-methoxyphenyl)-6-phenyl-6,9,10,11,12,13b-hexahydrobenzofuro[2′,3′:4,5]cyclopenta[1,2-d]pyrido[1,2-a]pyrimidin-7(5aH)-one] | moderate antiviral activity | – | – |
| COc1ccc([C@@]23Oc4cc(OC)cc(OC)c4[C@]2(O)c2nc(-c4ccccc4)n(C)c(=O)c2[C@H]3c2ccccc2)cc1 [12ae, (5R,5aR,10bS)-10b-Hydroxy-8,10-dimethoxy-5a-(4-methoxyphenyl)-3-methyl-2,5-diphenyl-3,5,5a,10b-tetrahydro-4H-benzofuro[2′,3′:4,5]cyclopenta[1,2-d]pyrimidin-4-one] | – | plateauing of cytotoxicity | EC50 [2]: 0.2 µM; CC50 [3]: 7.3 µM |
| COc1ccc([C@@]23Oc4cc(OC)cc(OC)c4[C@]2(O)c2nc(Nc4ccccc4)n(-c4ccccc4)c(=O)c2[C@H]3c2ccccc2)cc1 [12af, (5R,5aR,10bS)-10b-Hydroxy-8,10-dimethoxy-5a-(4-methoxyphenyl)-3,5-diphenyl-2-(phenylamino)-3,5,5a,10b-tetrahydro-4H-benzofuro[2′,3′:4,5]cyclopenta[1,2-d]pyrimidin-4-one] | moderate antiviral activity | – | – |
| COc1ccc([C@@]23Oc4cc(OC)cc(OC)c4[C@]2(O)c2nc(-c4ccccc4)[nH]c(=O)c2[C@@H]3c2ccccc2)cc1 [12ah, (5S,5aR,10bS)-10b-Hydroxy-8,10-dimethoxy-5a-(4-methoxyphenyl)-2,5-diphenyl-3,5,5a,10b-tetrahydro-4H-benzofuro[2′,3′:4,5]cyclopenta[1,2-d]pyrimidin-4-one] | inactive | no cytotoxicity | – |
| COc1ccc([C@@]23Oc4cc(OC)cc(OC)c4[C@]2(OC)c2nc(-c4ccccc4)n(C)c(=O)c2[C@H]3c2ccccc2)cc1 [12ai, (5R,5aR,10bS)-8,10,10b-Trimethoxy-5a-(4-methoxyphenyl)-3-methyl-2,5-diphenyl-3,5,5a,10b-tetrahydro-4H-benzofuro[2′,3′:4,5]cyclopenta[1,2-d]pyrimidin-4-one] | – | – | EC50 [2]: 9.2 µM |
| COc1ccc([C@@]23Oc4cc(OC)cc(OC)c4[C@]2(O)c2nc(-c4ccccc4)nc(OC)c2[C@H]3c2ccccc2)cc1 [12aj, (5R,5aR,10bS)-4,8,10-Trimethoxy-5a-(4-methoxyphenyl)-2,5-diphenyl-5,5a-dihydro-10bH-benzofuro[2′,3′:4,5]cyclopenta[1,2-d]pyrimidin-10b-ol] | inactive | non-toxic | – |
| COc1ccc([C@@]23Oc4cc(OC)cc(OC)c4[C@]2(O)c2nc(C4CCCCC4)[nH]c(=O)c2[C@H]3c2ccccc2)cc1 [12e, (5R,5aR,10bS)-2-Cyclohexyl-10b-hydroxy-8,10-dimethoxy-5a-(4-methoxyphenyl)-5-phenyl-3,5,5a,10b-tetrahydro-4H-benzofuro[2′,3′:4,5]cyclopenta[1,2-d]pyrimidin-4-one] | – | plateauing of cytotoxicity | EC50 [2]: 2.5 µM |
| COc1ccc([C@@]23Oc4cc(OC)cc(OC)c4[C@]2(O)c2nc(C4CC4)[nH]c(=O)c2[C@H]3c2ccccc2)cc1 [12h, (5R,5aR,10bS)-2-Cyclopropyl-10b-hydroxy-8,10-dimethoxy-5a-(4-methoxyphenyl)-5-phenyl-3,5,5a,10b-tetrahydro-4H-benzofuro[2′,3′:4,5]cyclopenta[1,2-d]pyrimidin-4-one] | increased inhibition | – | – |
| COc1ccc([C@@]23Oc4cc(OC)cc(OC)c4[C@]2(O)c2nc(N4CCOCC4)[nH]c(=O)c2[C@H]3c2ccccc2)cc1 [12j, (5R,5aR,10bS)-10b-Hydroxy-8,10-dimethoxy-5a-(4-methoxyphenyl)-2-morpholino-5-phenyl-3,5,5a,10b-tetrahydro-4H-benzofuro[2′,3′:4,5]cyclopenta[1,2-d]pyrimidin-4-one] | moderate antiviral activity | – | – |
| COc1ccc([C@@]23Oc4cc(OC)cc(OC)c4[C@]2(O)c2nc(-c4cnccn4)[nH]c(=O)c2[C@H]3c2ccccc2)cc1 [12y, (5R,5aR,10bS)-10b-Hydroxy-8,10-dimethoxy-5a-(4-methoxyphenyl)-5-phenyl-2-(pyrazin-2-yl)-3,5,5a,10b-tetrahydro-4H-benzofuro[2′,3′:4,5]cyclopenta[1,2-d]pyrimidin-4-one] | slightly increased inhibition | – | – |
| COc1ccc([C@]23Oc4cc(OC)cc(OC)c4[C@@]2(O)c2nc(-c4ccc(C)cc4)[nH]c(=O)c2[C@@H]3c2ccccc2)cc1 [(−)-12l] | inactive | non-toxic | – |
| COc1ccc([C@]23Oc4cc(OC)cc(OC)c4[C@@]2(O)c2nc(-c4cccc(OC)c4)[nH]c(=O)c2[C@@H]3c2ccccc2)cc1 [(−)-12s] | inactive | non-toxic | – |
| CONC(=O)[C@H]1[C@@H](O)[C@@]2(O)c3c(OC)cc(OC)cc3O[C@@]2(c2ccc(OC)cc2)[C@@H]1c1ccccc1 [CR-1-31-B, reference compound] | – | – | translation inhibition of firefly luciferase (cap-dependent) [5]: strong inhibition |
| COC(=O)[C@H]1[C@@H](O)[C@@]2(O)c3c(OC)cc(O[C@@H]4O[C@@H]([C@H](O)CO)CO[C@H]4OC)cc3O[C@@]2(c2ccc(OC)cc2)[C@@H]1c1ccccc1 [silvestrol] | – | – | translation inhibition (in words) [6]: excellent translation inhibitor |
